Source: patent publication US20010053796A1, “Delta-aminolevulinic acid for prevention and treatment of infection microorganisms and parasite” (priority 2000, published 2001)

What was measured:
[1] = tested on: Vibrio anguillarum; assay: Prevention effect for artificial infection (abdominal injection of bacteria); type: in vivo, Sebastes schlegeli; details: for Mortality during Cultivation: dead of 20 fish
Method: The water temperature was maintained at 20° C. (±2° C. ) throughout the experiment.
As the same method of above Experiment 1, fishes of both control group and experiment group were prepared and artificially infected by direct abdominal injection of Edwardsiella tarda 10^5 CFU per 1 fish. Each experimental fish was moved to fish tanks for monitoring and monitored for mortality according to infection for 2 weeks and viability after 2 weeks.
Bastardhalibut and Sebastes schlegeli were infected by Vibrio anguillarum through abdominal injection with the same method of fish breeding; δ-aminolevulinic acid treatment and artificial infection carried out in Experiment 1 and 2.

[2] = tested on: Scutica; assay: Prevention effect for Scutica artificial infection of fish body in vivo; details: for Mortality during Cultivation: fish number 20
Method: The water temperature was maintained at 20° C. (±2° C.) throughout the experiment.

[3] = tested on: Staphylococcus sp.; assay: Treatment effect of infected fry by digestion in breeding water; type: in vivo, Sebastes schlegeli; details: 50 fish
Method: (§1) To be used as experimental fish in this example, fry of Bastardhalibut and Sebastes schlegeli (mean body weight 2 g), 50 per each breeding tank, were preliminary-bred for 1 week and stabilized. […] The artificial infection methods were carried out by the digestion method. Pathogenic organisms were applied into fish tanks and digested in seawater, wherein the concentration of organisms has adjusted to 10^4 CFU/mL for an hour, and infected. Treatment conditions are as follows. After artificial infection. Infected fishes were moved to fish tanks and kept in the infection period for 3 days. On the fourth day of infection, 0.1, 1.0, 5 and 10 ppm δ-aminolevulinic acid were introduced to use as breeding water. Fish was bred in aerobic condition for 1˜24 hours without exchanging water and then, bred for 2 weeks after exchanging with clean seawater. Then, they were monitored to check for the mortality of fish according to infection. In the control groups, after each bacteria were identically introduced through the digestion method, mortality of Bastardhalibut and Sebastes schlegeli according to bacteria infection was identified while breeding with non-treated condition of δ-aminolevulinic acid. As a result of this experiment, δ-aminolevulinic acid-treated groups have shown high viability in both Bastardhalibut (Table 12˜Table 15) and Sebastes schlegeli (Table 16˜Table 19).

[4] = tested on: Edwardsiella tarda; assay: as above; type: in vivo, Sebastes schlegeli; details: 50 fish
Method: as §1

[5] = tested on: Streptococcus sp.; assay: as above; type: in vivo, Sebastes schlegeli; details: 50 fish
Method: as §1

[6] = tested on: Staphylococcus epidermis; assay: as above; type: in vivo, Sebastes schlegeli; details: 50 fish
Method: as §1

[7] = tested on: Pseudomonas sp.; assay: as above; type: in vivo, Sebastes schlegeli; details: 50 fish
Method: as §1

[8] = tested on: Vibrio anguillarum; assay: as above; type: in vivo, Sebastes schlegeli; details: 50 fish
Method: as §1

[9] = tested on: Staphylococcus epidermis; assay: Prevention effect for artificial infection (abdominal injection of bacteria); type: in vivo, Bastardhalibut; details: for Mortality during Cultivation: dead of 20 fish
Method: The water temperature was maintained at 20° C. (±2° C. ) throughout the experiment. […]
Bastardhalibut and Sebastes schlegeli were infected by […] Staphylococcus epidermis through abdominal injection with the same method of fish breeding; δ-aminolevulinic acid treatment and artificial carried out in Experiment 1 and 2. Each experimental fish was moved to fish tanks for monitoring and monitored for mortality according to infection for 2 weeks. […] The treated group, with δ-aminolevulinic acid by tank administraion method and oral administration method, has shown high viability.

[10] = Administration to fish tanks, 0.01 ppm, Bastardhalibut
[11] = Administration to fish tanks, 0.01 ppm, Sebastes schlegeli
[12] = Administration to fish tanks, 0.1 pm, Bastardhalibut
[13] = Administration to fish tanks, 0.1 pm, Sebastes schlegeli
[14] = Administration to fish tanks, 1.0 ppm, Bastardhalibut
[15] = Administration to fish tanks, 1.0 ppm, Sebastes schlegeli
[16] = Administration to fish tanks, 5.0 ppm, Bastardhalibut
[17] = Administration to fish tanks, 5.0 ppm, Sebastes schlegeli
[18] = Administration to fish tanks, 10 ppm, Bastardhalibut
[19] = Administration to fish tanks, 10 ppm, Sebastes schlegeli
[20] = Administration to fish tanks, 50 ppm, Bastardhalibut
[21] = Administration to fish tanks, 50 ppm, Sebastes schlegeli
[22] = Oral Adminstration, 0.1 ppm, Bastardhalibut
[23] = Oral Adminstration, 0.1 ppm, Sebastes schlegeli
[24] = Oral Adminstration, 1.0 ppm, Bastardhalibut
[25] = Oral Adminstration, 1.0 ppm, Sebastes schlegeli
[26] = Oral Adminstration, 5 ppm, Bastardhalibut
[27] = Oral Adminstration, 5 ppm, Sebastes schlegeli
[28] = Oral Adminstration, 10 ppm, Bastardhalibut
[29] = Oral Adminstration, 10 ppm, Sebastes schlegeli
[30] = Oral Adminstration, 50 ppm, Bastardhalibut
[31] = Oral Adminstration, 50 ppm, Sebastes schlegeli
[32] = Oral Adminstration, 100 ppm, Bastardhalibut
[33] = Oral Adminstration, 100 ppm, Sebastes schlegeli
[34] = digestion 0.1 ppm from 4th day of infection, Sebastes schlegeli fry
[35] = digestion 1.0 ppm from 4th day of infection, Sebastes schlegeli fry
[36] = digestion 5.0 ppm from 4th day of infection
[37] = digestion 10 ppm from 4th day of infection, Sebastes schlegeli fry
[38] = digestion 5.0 ppm from 4th day of infection, in Sebastes schlegeli
[39] = digestion 10 ppm from 4th day of infection

## NCC(=O)CCC(=O)O [δ-aminolevulinic acid]
[1]; orally, 0.1 ppm in feed
  Viability: 60%
  Mortality during Cultivation: 8
[1]; orally, 1.0 ppm in feed
  Viability: 65%
  Mortality during Cultivation: 7
[1]; orally, 10 ppm in feed
  Viability: 80%
  Mortality during Cultivation: 4
[1]; orally, 100 ppm in feed
  Viability: 90%
  Mortality during Cultivation: 2
[1]; to fish tanks, 0.01 ppm
  Viability: 60%
  Mortality during Cultivation: 8
[1]; to fish tanks, 0.1 ppm
  Viability: 60%
  Mortality during Cultivation: 8
[1]; to fish tanks, 1.0 ppm
  Viability: 85%
  Mortality during Cultivation: 1
[1]; to fish tanks, 10 ppm
  Viability: 90%
  Mortality during Cultivation: 2
[2]; [10]
  Viablity (%): 60%
  Mortality during Cultivation: 8
[2]; [11]
  Viablity (%): 60%
  Mortality during Cultivation: 8
[2]; [12]
  Viablity (%): 75%
  Mortality during Cultivation: 7
[2]; [13]
  Viablity (%): 60%
  Mortality during Cultivation: 8
[2]; [14]
  Viablity (%): 75%
  Mortality during Cultivation: 5
[2]; [15]
  Viablity (%): 70%
  Mortality during Cultivation: 6
[2]; [16]
  Viablity (%): 85%
  Mortality during Cultivation: 3
[2]; [17]
  Viablity (%): 85%
  Mortality during Cultivation: 3
[2]; [18]
  Viablity (%): 85%
  Mortality during Cultivation: 3
[2]; [19]
  Viablity (%): 85%
  Mortality during Cultivation: 3
[2]; [20]
  Viablity (%): 80%
  Mortality during Cultivation: 4
[2]; [21]
  Viablity (%): 80%
  Mortality during Cultivation: 4
[2]; [22]
  Viablity (%): 70%
  Mortality during Cultivation: 6
[2]; [23]
  Viablity (%): 65%
  Mortality during Cultivation: 7
[2]; [24]
  Viablity (%): 70%
  Mortality during Cultivation: 6
[2]; [25]
  Viablity (%): 75%
  Mortality during Cultivation: 5
[2]; [26]
  Viablity (%): 85%
  Mortality during Cultivation: 3
[2]; [27]
  Viablity (%): 85%
  Mortality during Cultivation: 3
[2]; [28]
  Viablity (%): 95%
  Mortality during Cultivation: 1
[2]; [29]
  Viablity (%): 95%
  Mortality during Cultivation: 1
[2]; [30]
  Viablity (%): 95%
  Mortality during Cultivation: 1
[2]; [31]
  Viablity (%): 95%
  Mortality during Cultivation: 1
[2]; [32]
  Viablity (%): 90%
  Mortality during Cultivation: 2
[2]; [33]
  Viablity (%): 95%
  Mortality during Cultivation: 1
[3]; [34]
  Viability: 50%
[3]; [35]
  Viability: 76%
[3]; [36]
  Viability: 84%
[3]; [37]
  Viability: 86%
[4]; [34]
  Viability: 60%
[4]; [35]
  Viability: 80%
[4]; [38]
  Viability: 84%
[4]; [37]
  Viability: 94%
[5]; [34]
  Viability: 50%
[5]; [35]
  Viability: 76%
[5]; [38]
  Viability: 86%
[5]; [37]
  Viability: 86%
[6]; [34]
  Viability: 40%
[6]; [35]
  Viability: 70%
[6]; [38]
  Viability: 66%
[6]; [39]
  Viability: 84%
[7]; [34]
  Viability: 40%
[7]; [35]
  Viability: 76%
[7]; [38]
  Viability: 86%
[7]; [39]
  Viability: 84%
[8]; [34]
  Viability: 50%
[8]; [35]
  Viability: 74%
[8]; [36]
  Viability: 84%
[8]; [37]
  Viability: 86%
[9]; orally, 0.1 ppm in feed
  Viability: 50%
  Mortality during Cultivation: 10
[9]; orally, 1.0 ppm in feed
  Viability: 55%
  Mortality during Cultivation: 9
[9]; orally, 10 ppm in feed
  Viability: 70%
  Mortality during Cultivation: 6
[9]; orally, 100 ppm in feed
  Viability: 80%
  Mortality during Cultivation: 4
[9]; to fish tanks, 0.01 ppm
  Viability: 55%
  Mortality during Cultivation: 9
[9]; to fish tanks, 0.1 ppm
  Viability: 65%
  Mortality during Cultivation: 7
[9]; to fish tanks, 1.0 ppm
  Viability: 65%
  Mortality during Cultivation: 7
[9]; to fish tanks, 10 ppm
  Viability: 75%
  Mortality during Cultivation: 5
